Experimental data taken from US11746116B2, “Antibiotic resistance breakers” (KING'S COLLEGE LONDON, priority 2017, dated 2023).
Converted amounts (≈) assume the structure as drawn. Where two headings read alike, the source gives them in different places.

Assays:
Test in all cases: MIC, microdilution broth method
[1] = tested on: VRE12204; assay type: cell-based, Enterococcus faecium; conditions: in µg/mL; for MIC: VRE12204; for MIC, VRE12204: ESKAPE panel, Gram-positive
[2] = tested on: PA01; assay type: cell-based, Pseudomonas aeruginosa; conditions: for MIC, PA01: ESKAPE panel, Gram-negative
[3] = tested on: EMRSA16; assay type: cell-based, Staphylococcus aureus
[4] = tested on: MSSA9144; assay type: cell-based, Staphylococcus aureus; conditions: for MIC, MSSA9144: ESKAPE panel, Gram-positive
[5] = tested on: EC12923; assay type: cell-based; conditions: for MIC, EC12923: ESKAPE panel, Gram-negative
[6] = tested on: EMRSA15; assay type: cell-based, Staphylococcus aureus
[7] = tested on: VRE12201; assay type: cell-based, Enterococcus faecalis; conditions: for MIC, VRE12201: ESKAPE panel, Gram-positive
[8] = tested on: M6; assay type: cell-based; conditions: for MIC, M6: ESKAPE panel, Gram-negative
[9] = tested on: VSE775; assay type: cell-based, Enterococcus faecalis; set-up: MIC, VSE775: unit not given beside the values; conditions: for MIC, VSE775: ESKAPE panel, Gram-positive
[10] = tested on: KP13368; assay type: cell-based; conditions: for MIC, KP13368: ESKAPE panel, Gram-negative
[11] = tested on: AYE; assay type: cell-based, Acinetobacter baumannii; conditions: for MIC, AYE: ESKAPE panel, Gram-negative
[12] = tested on: Ab17978; assay type: cell-based; conditions: for MIC, Ab17978: ESKAPE panel, Gram-negative
[13] = tested on: PA13437; assay type: cell-based
[14] = PA01, Normal (no PMBN), in µg/mL
[15] = KP13368, Normal (no PMBN), in µg/mL
[16] = AYE, Normal (no PMBN), in µg/mL
[17] = Ab17978, Normal (no PMBN), in µg/mL
[18] = Pseudomonas aeruginosa (PA01), Gram-Negative, read-out: MIC
[19] = ESKAPE panel, Gram-positive, in µg/mL
[20] = Staphylococcus aureus (EMRSA16), Gram-Positive (Table 14), read-out: MIC
[21] = Staphylococcus aureus (MSSA9144), Gram-Positive, read-out: MIC
[22] = Escherichia coli (EC12923), Gram-Negative, read-out: MIC
[23] = Staphylococcus aureus, Staphylococcus aureus (EMRSA15), Gram-Positive (Table 14), read-out: MIC
[24] = Enterococcus faecalis, Enterococcus (VRE12201), Gram-Positive, read-out: MIC
[25] = Klebsiella pneumoniae (M6), Gram-Negative, read-out: MIC
[26] = Enterococcus faecalis, Enterococcus (VRE775), Gram-Positive, read-out: MIC
[27] = Klebsiella pneumoniae (KP13368), Gram-Negative, read-out: MIC
[28] = Acinetobacter baumannii (AB17978), Gram-Negative, read-out: MIC

| MIC, VRE12204 [1] | MIC, PA01 ([2]; in µg/mL) | MIC, EMRSA16 [3, 19] | MIC, MSSA9144 ([4]; in µg/mL) | MIC, EC12923 ([5]; in µg/mL) | MIC, EMRSA15 [6, 19] | MIC, M6 ([8]; in µg/mL) | MIC, VSE775 [9] | MIC, KP13368 [10] [µg/mL] | MIC, Ab17978 ([12]; in µg/mL) | Compound | MIC [1] | MIC [2, 14] | MIC ([3]; EMRSA16, in µg/mL) | MIC ([4]; MSSA9144, in µg/mL) | MIC ([6]; EMRSA15, in µg/mL) | MIC ([7]; VRE12201, in µg/mL) | MIC ([8]; M6, Normal (no PMBN), in µg/mL) | MIC ([9]; VSE775, in µg/mL) | MIC [11, 16] | MIC [12, 17] | also measured |
| --- | --- | --- | --- | --- | --- | --- | --- | --- | --- | --- | --- | --- | --- | --- | --- | --- | --- | --- | --- | --- | --- |
| – | – | – | – | – | – | – | – | – | – | C[C@H]1COc2c(N3CCC(Nc4ncccn4)C3)c(F)cc3c(=O)c(C(=O)O)cn1c23 (stereo partly drawn) [Compound 82-KSN-L7, (3S)-9-fluoro-3-methyl-7-oxo-10-(3-(pyrimidin-2-ylamino)-pyrrolidin-1-yl)-2,3-dihydro-7H-[1,4]oxazino[2,3,4-ij]quinoline-6-carboxylic acid] | 4 | 16 | 4 | ≤0.125-4 | 4 | 0.5 | 2-4 | 1-2 | 64 | 1 | MIC ([5]; EC12923, in µg/mL): 1; MIC [10, 15]: 16 |
| 0.5 | 4 | 1 | ≤0.125 | 0.25-0.5 | 1 | 0.5 | ≤0.125 | 8 (≈ 18.8 µM) | 0.25 | C[C@H]1COc2c(N3CC[C@@H](Nc4cnccn4)C3)c(F)cc3c(=O)c(C(=O)O)cn1c23 [KSN-BL1, (S)-9-fluoro-3-methyl-7-oxo-10-((R)-3-(pyrazin-2-ylamino)pyrrolidin-1-yl)-2,3-dihydro-7H-[1,4]oxazino[2,3,4-ij]quinoline-6-carboxylic acid] | – | – | – | – | – | – | – | – | – | – | MIC [2, 18]: 4 µg/mL (≈ 9.4 µM); MIC, EMRSA16 ([3]; EMRSA16 (Table 16, role of the terminal pyrimidine ring), in µg/mL): 1; MIC [3, 20]: 1 µg/mL (≈ 2.35 µM); MIC [4, 21]: ≤ 0.125 µg/mL; MIC [5, 22]: 0.25 µg/mL (≈ 0.588 µM); MIC, EMRSA15 ([6]; EMRSA15 (Table 16, role of the terminal pyrimidine ring), in µg/mL): 1; MIC [6, 23]: 1 µg/mL (≈ 2.35 µM); MIC, VRE12201 ([7]; in µg/mL): ≤0.125; MIC [7, 24]: ≤ 0.125 µg/mL; MIC [8, 25]: 0 to 5 µg/mL; MIC [9, 26]: ≤ 0.125 µg/mL; MIC [10, 27]: 8 µg/mL (≈ 18.8 µM); MIC ([11]; Acinetobacter baumannii (AYE), Gram-Negative, read-out: MIC): 8 µg/mL (≈ 18.8 µM); MIC, AYE ([11]; in µg/mL): 8; MIC [12, 28]: 0.25 µg/mL (≈ 0.588 µM) |
| 8 | 64 | 64 | 0.5-1 | 2 | 64 | 4 | 4 | 64 (≈ 149 µM) | 4 | C[C@H]1COc2c(N3CCC(N4CCN(C)CC4)C3)c(F)cc3c(=O)c(C(=O)O)cn1c23 (stereo partly drawn) [KSN-L31, (3S)-9-fluoro-3-methyl-10-(3-(4-methylpiperazin-1-yl)pyrrolidin-1-yl)-7-oxo-2,3-dihydro-7H-[1,4]oxazino[2,3,4-ij]quinoline-6-carboxylic acid] | – | – | – | – | – | – | – | – | – | – | MIC, VRE12201 ([7]; in µg/mL): 2 |
| 4 | 32-64 | 16-32 | 0.25 | 2 | 16 | 8 | 4 | 32 (≈ 76.7 µM) | 2 | C[C@H]1COc2c(N3CCC(N4CCOCC4)C3)c(F)cc3c(=O)c(C(=O)O)cn1c23 (stereo partly drawn) [KSN-L33, (3S)-9-fluoro-3-methyl-10-(3-morpholinopyrrolidin-1-yl)-7-oxo-2,3-dihydro-7H-[1,4]oxazino[2,3,4-ij]quinoline-6-carboxylic acid] | – | – | – | – | – | – | – | – | – | – | MIC, VRE12201 ([7]; in µg/mL): 2 |
| 1 | 0.25-0.5 | 32 | 0.25 | ≤0.125 | 32 | ≤0.125 | 1-4 | 4 (≈ 11.5 µM) | 2 | C[C@H]1COc2c(N3CC[C@@H](N)C3)c(F)cc3c(=O)c(C(=O)O)cn1c23 [KSN-L44-D, (S)-10-((R)-3-aminopyrrolidin-1-yl)-9-fluoro-3-methyl-7-oxo-2,3-dihydro-7H-[1,4]oxazino[2,3,4-ij]quinoline-6-carboxylic acid] | – | – | – | – | – | – | – | – | – | – | MIC, PA13437 ([13]; ESKAPE panel, Gram-negative): 32 µg/mL (≈ 92.1 µM); MIC, VRE12201 ([7]; in µg/mL): 0.5-1 |
| 1 | 8 | 4 | ≤0.125 | 1 | 1 | 1 | ≤0.125 | 16 (≈ 36.3 µM) | 0.25 | C[C@H]1COc2c(N3CC[C@H](Nc4ncc(N)cn4)C3)c(F)cc3c(=O)c(C(=O)O)cn1c23 [KSN-L62, (S)-10-((S)-3-((5-aminopyrimidin-2-yl)amino)pyrrolidin-1-yl)-9-fluoro-3-methyl-7-oxo-2,3-dihydro-7H-[1,4]oxazino[2,3,4-ij]quinoline-6-carboxylic acid] | – | – | – | – | – | – | – | – | – | – | MIC, VRE12201 ([7]; in µg/mL): ≤0.125; MIC, AYE ([11]; in µg/mL): 4 |
| – | – | – | – | – | – | – | – | – | – | O=C(O)c1cn(C2CC2)c2cc(N3CCN(Cc4cccc5c4OCO5)CC3)c(F)cc2c1=O [ML-77-032] | – | 16 | 64 | 0.25-1 | – | 1 | 2 | 2 | 64 | 0.25 | – |
| – | – | – | – | – | – | – | – | – | – | O=C(O)c1cn(C2CC2)c2cc(N3CCN(Cc4ccccc4)CC3)c(F)cc2c1=O [ML-77-046] | 4-8 | – | 32 | 0.12-0.25 | – | 1-2 | 2 | 2-4 | 64-128 | 0.25 | – |
| – | – | – | – | – | – | – | – | – | – | CCn1cc(C(=O)O)c(=O)c2cc(F)c(N3CCN(Cc4cc(=O)[nH]c5ccccc45)CC3)cc21 [ML-77-059] | >32 | >32 | >32 | 16-32 | >32 | >32 | 16 | >32 | >32 | 32 | MIC ([13]; PA13437, Normal (no PMBN)): > 32 µg/mL; MIC [10, 15]: >32 |
| – | – | – | – | – | – | – | – | – | – | O=C(O)c1cn(C2CC2)c2cc(N3CCN(Cc4ccc(CO)cc4)CC3)c(F)cc2c1=O [ML-77-147] | – | – | 8 | <0.12 | 8 | 0.5 | 0.5-1 | 1 | 16-32 | 0.25-0.5 | – |
| 1-4 | 64 | 2 | – | 2 | 2 | 4 | < 0.125 - 0.5 | 32 (≈ 72.2 µM) | 2 | C[C@H]1COc2c(N3CCN(c4ncc(F)cn4)CC3)c(F)cc3c(=O)c(C(=O)O)cn1c23 [ML-83-010] | – | – | – | – | – | – | – | – | – | – | MIC [2, 18]: 64 µg/mL (≈ 144 µM); MIC [3, 20]: 2 µg/mL (≈ 4.51 µM); MIC [4, 21]: ≤ 0.125 µg/mL; MIC [5, 22]: 2 µg/mL (≈ 4.51 µM); MIC [6, 23]: 2 µg/mL (≈ 4.51 µM); MIC [7, 24]: ≤ 0.125 µg/mL; MIC [8, 25]: 4 µg/mL (≈ 9.02 µM); MIC [9, 26]: 0.5 µg/mL (≈ 1.13 µM); MIC [10, 27]: 32 µg/mL (≈ 72.2 µM); MIC [12, 28]: 2 µg/mL (≈ 4.51 µM) |
| – | – | – | – | – | – | – | – | – | – | C[C@H]1COc2c(N3CCN(c4ccccn4)CC3)c(F)cc3c(=O)c(C(=O)O)cn1c23 [ML-83-0018, (S)-9-fluoro-3-methyl-7-oxo-w-(4-(pyridin-2-yl)piperazin-1-yl)-2,3-dihydro-7H-[1,4]oxazino[2,3,4-ij]quinoline-6-carboxylic acid] | 2 | 64 | 8 | ≤0.12 | 4 | 0.25 | 8 | 0.25-0.5 | – | 2 | MIC ([5]; EC12923, in µg/mL): 2-4; MIC [10, 15]: 32 |
| – | – | – | – | – | – | – | – | – | – | C[C@H]1COc2c(N3CCCN(c4cnccn4)CC3)c(F)cc3c(=O)c(C(=O)O)cn1c23 [ML-83-041 (5.16), (S)-9-fluoro-3-methyl-7-oxo-10-(4-(pyrazin-2-yl)-1,4-diazepan-1-yl)-2,3-dihydro-7H-[1,4]oxazino[2,3,4-ij]quinoline-6-carboxylic acid] | 4 | 16-32 | 8 | ≤0.125 | 4-8 | 0.5-1 | 2 | 1 | 64-128 | 1 | MIC ([5]; EC12923, in µg/mL): 1-2; MIC [10, 15]: 16-32 |
